The results in this text go back to patent US12427151B2, “Compositions and method of treating cancer” (The Regents of the University of California, priority 2017, dated 2025).

Converted amounts (≈) assume the structure as drawn.

In data set [1] the test system is NHEKs treated with mARC1 and mARC2 siRNA. As to the kind of experiment: Gene silencing of mARCs with siRNA, sensitivity to 6-HAP. The format is cell-based, human. Particulars: 6-HAP 10 μg/mL for 24 hrs, BrdU incorporation. The method, then: (a-b) Selective antiproliferative activity of 6-HAP against Pam212 squamous cell carcinoma, but not against normal keratinocytes. BrdU incorporation into Pam212 cells (b) or NHEKs (b) after 4-hr or 24-hr incubation, respectively, in suitable media containing indicated concentrations of 6-HAP or mitomycin C (10 μg/mL) (a). (c) Expression of mARC1 and mARC2 in NHEKs, squamous cell carcinoma (Pam212), melanoma (B16F10) and lymphoma cell lines (L5178). To compare relative expression level in each cells, data was shown as relative to GAPDH expression. (d) Expression of mARC1 and mARC2 in NHEKs treated with control siRNA, mARCI siRNA and mARC2 siRNA. (e) Effect of gene silencing with mARC1 and mARC2 siRNA on sensitivity to 6-HAP in NHEKs. NHEKs treated with each siRNA were incubated for 48 hrs and then incubated with 10 μg/mL of 6-HAP for 24 hrs.
Gene silencing of mARCs with siRNA. NHEK was cultured in EpiLife® media containing pre-designed siRNA for mARC1 or mARC2 (Thermo Fisher, Waltham, MA), and RNAiMAX® reagent for 24 hrs. Cells were maintained in EpiLife for 72 hrs, and incubated with 6-HAP (10 μg/mL) for 24 hrs. Anti-proliferative activity of 6-HAP was determined by measuring BrdU incorporation as described above.
In mammalian cells, mitochondrial […] reducing components (mARC) 1 and 2 have shown to be capable of reducing N-hydroxylated nucleobase analogs to canonical nucleobases. […]
For orientation: Uptake of a labelled nucleoside into DNA is a usual measure of proliferation.

The subject of data set [2] is GAS NZ131. As to the kind of experiment: MBC determination. The data set is classed as cell-based, group A Streptococcus. Conditions: Streptococcus, 3-log reduction of viable bacteria after 24 hour incubation at 37° C. in half strength MHB in PBS. As to the method: (§1) To determine MBC, bacteria were cultured in TSB (Staphylococcus), THB (Streptococcus) or Nutrient broth (P. aeruginosa and E. coli) by reaching exponential phase (OD600=0.5-0.8). […] After incubation, the number of viable bacteria was measured by counting CFU after spreading 10-fold serial dilutions of bacteria on suitable agar plates. MBC was determined as a 3-log reduction (99.9%) of viable bacteria after 24 hour incubation.
(§2) Antimicrobial activity of 6-HAP in vitro. To examine the specificity of 6-HAP for various bacteria, minimal bactericidal concentrations (MBCs) were determined according to dose-dependent killing curves at 24 hrs of incubation in vitro (Table 1). 6-HAP killed or suppressed growth of several major skin pathogens including GAS (NZ131), group B Streptococcus (GBS) (DK23), methicillin-sensitive S. aureus (ATCC35556), methicillin-resistant S. aureus (MRSA) strains (USA300 and Sanger252), Pseudomonas aeruginosa (P. aeruginosa) (ATCC14213) in vitro. […] S. epidermidis (ATCC12228) was also resistant to 6-HAP.

Data set [3] is described as follows: Systemic toxicity in mice. The data set is classed as in vivo. Particulars: intravenous 20 mg/kg every 48 hrs for 2 weeks. The method, then:
C57BL6 mice (8 week female) were intravascularly administrated with 6-HAP (20 mg/kg) or with an equal volume of vehicle (2.5% DMSO in 0.9% NaCl) every 48 hours for 2 weeks (Arrows). To observe toxicity of 6-HAP, mouse weight was determined at indicated time points. Data represent mean±SE of 10 mice.
Effect of systemic administration with 6-HAP on skin infection and melanoma growth in mice. […] Thus, given the apparent lack of toxicity, the effect on deep tissue infection was tested by intravenously injecting the non-toxic dose of 6-HAP (20 mg/kg) into a mouse model of GAS deep skin infection.

Data set [4] deals with GAS. As to the kind of experiment: Subcutaneous GAS deep skin infection in mice. The format is in vivo, C57BL6 mouse. Conditions: single intravenous injection 20 mg/kg after GAS inoculation. As to the method:
(a-c) Effect of a single intravascular injection of 6-HAP on skin infection by GAS. The size of the infected lesion was measured by Image-J software (a). Representative images of infected skin (arrow) of mouse treated with 6-HAP or vehicle at Day-1 and Day-3 post infection are shown in (b). Infected skin was removed 24 and 72 hrs after bacterial injection and homogenized in PBS (c). CFUs were enumerated by plating serial dilutions of the homogenate on an agar plate. The data represent mean±SE of eight individual experiments (*P<0.05 and **P<0.01 by Student's t-test vs vehicle control). (d-e) Effect of repeated intravascular administrations with 6-HAP on growth of melanoma in mice. The data represent mean±SE of 10 individual experiments (*P<0.05, **P<0.01 and ***P<0.001 by Student's t-test vs vehicle control) (d). Representative images of tumor (broken line) in mouse treated with 6-HAP or vehicle at Day-9 and Day-13 are shown in (e).
For subcutaneous infection, mouse dorsal skin was subcutaneously injected with GAS (1×10^7 CFU/50 μL in PBS) by 31 G needle. […] Wound development was monitored everyday by taking photographs along with a wound ruler and lesion size was measured with ImageJ ([http://]rsbweb.nih.gov/ij/)(hyperlink disabled by brackets). […]

Data set [5] deals with MRSA Sanger252. As to the kind of experiment: MBC determination. Conditions: Staphylococcus aureus, 3-log reduction, 24 hour, 37° C., half strength MHB in PBS. The data set is classed as cell-based, methicillin-resistant S. aureus. The method, then: as §1, §2
Data set [6] relates to MRSA USA300. As to the kind of experiment: MBC determination. The data set is classed as cell-based, methicillin-resistant S. aureus. Particulars: Staphylococcus aureus, 3-log reduction, 24 hour, 37° C., half strength MHB in PBS. As to the method: as §1, §2

For orientation: MBC means the lowest tested concentration that kills the bacteria rather than only halting them. Low readings indicate more potent killing, high ones less potent killing. Take `ONc1ncnc2nc[nH]c12` [6-HAP, 6-N-hydroxyaminopurine]: in data set [1], the “cellular sensitivity to 6-HAP after mARC1 and mARC2 gene silencing” value is “increased cellular sensitivity”. In addition, the results for the MBC in data set [2], in data set [5] and in data set [6] were 0.156 µg/mL (≈ 1.03 µM), 0.781 µg/mL (≈ 5.17 µM) and 6.25 µg/mL (≈ 41.4 µM), respectively. Also, the “toxic effects assessed by visual appearance, behavior or change in weight” value in data set [3] is given as “no apparent toxic effects”. In data set [4], the “GAS survival in infected skin” value is given as “significantly suppressed”. For the same molecule, the clinical lesion size entry in data set [4] is given as “significantly suppressed”.
